# In patent US6806230B1, “Pyrimidine derivatives and herbicides containing them” (Kumiai Chemical Industry Co., Ltd., priority 1999, dated 2004):
# Tested on: barnyard grass (Eo)
# Test: Test Example 1: herbicidal effects by flooded paddy field treatment
# Type: in vivo
# Set-up: herbicidal effects, Eo (barnyard grass):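 0-5 growth inhibition grade; 5 = over 90%; 4 = 70-90%; 3 = 50-70%; 2 = 30-50%; 1 = 10-30%; 0 = under 10%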
# Settings: dose 100 g active ingredient per 10 ares, examined on the 21st day after treatment, standards of Table 44
# Method: (§1) In a 100 cm^2 plastic pot, paddy field soil was filled and paddled. Then, seeds of barnyard grass (Eo) and monochoria (Mo) were sown, and water was introduced to a depth of 3 cm. Next day, a wettable powder prepared in accordance with Formulation Example 1 was diluted with water and dropwise applied to the water surface. The dose was 100 g of the active ingredient per 10 ares. Thereafter, cultivation was carried out in a green house, and on the 21st day after the treatment, the herbicidal effects were examined in accordance with the standards as identified in Table 44.
row,Structure (SMILES),"herbicidal effects, Eo (barnyard grass)"
1,Cc1ccc(CC(=O)N(C)C(c2cncnc2C(F)(F)F)C2(C)CC2)s1 (racemic) [2-59],5
2,CCC(C)C(c1cncnc1C(F)(F)F)N(C)C(=O)Cc1ccc(C(F)(F)F)cc1 (mixture of isomers) [1-307],5
3,C#CCN(C(=O)Cc1ccc(C)cc1)C(c1cncnc1CC)C(C)C (racemic) [1-561],5
4,CC(C)C(c1cncnc1C=NO)N(C)C(=O)Cc1ccc(F)cc1 (racemic) [1-501],5
5,CCOC(OCC)c1ncncc1C(C(C)C)N(C)C(=O)Cc1ccc(Cl)cc1 (racemic) [1-469],5
6,COC(C)(OC)C(c1cncnc1C(C)C)N(C)C(=O)Cc1ccc(F)cc1 (racemic) [1-510],5
7,CC(C)C(c1cncnc1-c1ccccc1)N(C)C(=O)Cc1ccccc1 (racemic) [1-322],5
8,CC(C)C(c1cncnc1C(F)(F)F)N(C)C(=O)COc1cncc(Cl)c1 (racemic) [2-44],5
9,CC(NC(=O)N(C)C(c1cncnc1C(F)(F)F)C(C)C)c1ccccc1 (mixture of isomers) [1-535],5
10,CC(C)C(c1cncnc1C(F)(F)Cl)N(C)C(=O)Oc1ccc(F)cc1 (racemic) [1-184],5
11,CN(C(=O)Cc1cccs1)C(c1cncnc1C(F)(F)F)C(C)(C)C (racemic) [2-13],5
12,CN(C(=O)Cc1ccc(Cl)cc1F)C(c1cncnc1C(F)(F)F)C(C)(C)C (racemic) [Compound 1-249],5
13,CN(C(=O)Cc1ccccc1F)C(c1cncnc1C(F)(F)F)C1CCCC1 (racemic) [Compound 1-156],5
14,"CCOC(=O)c1ncncc1C(C(C)C)N(C)C(=O)C(C)c1ccc(Cl)cc1 (single isomer, unassigned) [1-595]",5
15,CN(C(=O)Cc1ccc(F)cc1)C(c1ccc(F)cc1F)c1cncnc1C(F)(F)F (racemic) [1-555],5
16,CC(C)C(c1cncnc1C(F)(F)F)N(C)C(=O)Cc1ccncc1 (racemic) [2-5],5
17,CCOC(=O)CN(C(=O)Cc1ccccc1)C(c1cncnc1C(F)(F)F)C(C)C (racemic) [1-476],5
18,CN(C(=O)Cc1ccsc1)C(c1cncnc1C(F)(F)F)C(C)(C)C (racemic) [2-14],5
19,CSCC(c1cncnc1C(F)(F)F)N(C)C(=O)Cc1cccc(F)c1 (racemic) [1-420],5
20,CC(C)C(c1cncnc1C(F)(F)F)N(C)C(=O)Cc1cccs1 (racemic) [2-6],5
21,CN(C(=O)Cc1ccc(F)cc1F)C(c1ccccc1)c1cncnc1C(F)(F)F (racemic) [Compound 1-274],5
22,CC(C)C(c1cncnc1C(F)(F)F)N(C)C(=O)C(=O)c1ccccc1 (racemic) [1-328],5
23,C=CCN(C(=O)Cc1ccccc1)C(c1cncnc1C(F)(F)F)C(C)C (racemic) [1-518],5
24,COCc1ncncc1C(C(C)C)N(C)C(=O)Cc1ccc(Cl)s1 (racemic) [2-77],5
25,CC(C)C(c1cncnc1C(F)(F)F)N(C)C(=O)Cn1cc(Br)cn1 (racemic) [2-41],5
26,CC(C)C(c1cncnc1C(F)(F)Cl)N(C)C(=O)Oc1ccc(Cl)cc1 (racemic) [1-185],5

# Tested on: barnyard grass (Ec)
# Test: Test Example 2: herbicidal effects by upland soil treatment
# Type: in vivo
# Set-up: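 0-5 growth inhibition grade; 5 = over 90%; 4 = 70-90%; 3 = 50-70%; 2 = 30-50%; 1 = 10-30%; 0 = under 10%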
# Settings: dose 100 g active ingredient per 10 ares, examined on the 21st day after treatment
# Method: In a 80 cm^2 plastic pot, upland soil was filled, and seeds of barnyard grass (Ec) and green foxtail (Se) were sown and covered with soil. A wettable powder prepared in accordance with Formulation Example 1 was diluted with water and uniformly applied to the soil surface by means of a small size spray at a rate of 100 l per 10 ares, so that the dose of the active ingredient would be 100 g per 10 ares. Thereafter, cultivation was carried out in a green house, and on the 21st day after the treatment, the herbicidal effects were examined in accordance with the standards as identified in Table 44.
row,Structure (SMILES),"Ec (herbicidal effects, index)"
1,Cc1ccc(CC(=O)N(C)C(c2cncnc2C(F)(F)F)C2(C)CC2)s1 (racemic) [2-59],5
2,CCC(C)C(c1cncnc1C(F)(F)F)N(C)C(=O)Cc1ccc(C(F)(F)F)cc1 (mixture of isomers) [1-307],5
3,C#CCN(C(=O)Cc1ccc(C)cc1)C(c1cncnc1CC)C(C)C (racemic) [1-561],5
4,CC(C)C(c1cncnc1C(F)(F)F)N(C)C(=O)COc1cncc(Cl)c1 (racemic) [2-44],5
5,CC(NC(=O)N(C)C(c1cncnc1C(F)(F)F)C(C)C)c1ccccc1 (mixture of isomers) [1-535],5
6,CN(C(=O)Cc1cccs1)C(c1cncnc1C(F)(F)F)C(C)(C)C (racemic) [2-13],5
7,CN(C(=O)Cc1ccc(Cl)cc1F)C(c1cncnc1C(F)(F)F)C(C)(C)C (racemic) [Compound 1-249],5
8,CN(C(=O)Cc1ccc(F)cc1)C(c1ccc(F)cc1F)c1cncnc1C(F)(F)F (racemic) [1-555],5
9,CCOC(=O)CN(C(=O)Cc1ccccc1)C(c1cncnc1C(F)(F)F)C(C)C (racemic) [1-476],5
10,CN(C(=O)Cc1ccsc1)C(c1cncnc1C(F)(F)F)C(C)(C)C (racemic) [2-14],5
11,CC(C)C(c1cncnc1C(F)(F)F)N(C)C(=O)Cc1cccs1 (racemic) [2-6],5
12,CN(C(=O)Cc1ccc(F)cc1F)C(c1ccccc1)c1cncnc1C(F)(F)F (racemic) [Compound 1-274],5
13,CC(C)C(c1cncnc1C(F)(F)F)N(C)C(=O)C(=O)c1ccccc1 (racemic) [1-328],5
14,C=CCN(C(=O)Cc1ccccc1)C(c1cncnc1C(F)(F)F)C(C)C (racemic) [1-518],5
15,COCc1ncncc1C(C(C)C)N(C)C(=O)Cc1ccc(Cl)s1 (racemic) [2-77],5

# Tested on: monochoria (Mo)
# Test: Test Example 1: herbicidal effects by flooded paddy field treatment
# Type: in vivo
# Set-up: herbicidal effects, Mo (monochoria):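 0-5 growth inhibition grade; 5 = over 90%; 4 = 70-90%; 3 = 50-70%; 2 = 30-50%; 1 = 10-30%; 0 = under 10%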
# Settings: dose 100 g active ingredient per 10 ares, examined on the 21st day after treatment, standards of Table 44
# Method: as §1
row,Structure (SMILES),"herbicidal effects, Mo (monochoria)"
1,Cc1ccc(CC(=O)N(C)C(c2cncnc2C(F)(F)F)C2(C)CC2)s1 (racemic) [2-59],5
2,CCC(C)C(c1cncnc1C(F)(F)F)N(C)C(=O)Cc1ccc(C(F)(F)F)cc1 (mixture of isomers) [1-307],5
3,C#CCN(C(=O)Cc1ccc(C)cc1)C(c1cncnc1CC)C(C)C (racemic) [1-561],5
4,CC(C)C(c1cncnc1C=NO)N(C)C(=O)Cc1ccc(F)cc1 (racemic) [1-501],5
5,CCOC(OCC)c1ncncc1C(C(C)C)N(C)C(=O)Cc1ccc(Cl)cc1 (racemic) [1-469],5
6,COC(C)(OC)C(c1cncnc1C(C)C)N(C)C(=O)Cc1ccc(F)cc1 (racemic) [1-510],5
7,CC(C)C(c1cncnc1-c1ccccc1)N(C)C(=O)Cc1ccccc1 (racemic) [1-322],5
8,CC(C)C(c1cncnc1C(F)(F)F)N(C)C(=O)COc1cncc(Cl)c1 (racemic) [2-44],5
9,CC(NC(=O)N(C)C(c1cncnc1C(F)(F)F)C(C)C)c1ccccc1 (mixture of isomers) [1-535],5
10,CC(C)C(c1cncnc1C(F)(F)Cl)N(C)C(=O)Oc1ccc(F)cc1 (racemic) [1-184],5
11,CN(C(=O)Cc1cccs1)C(c1cncnc1C(F)(F)F)C(C)(C)C (racemic) [2-13],5
12,CN(C(=O)Cc1ccc(Cl)cc1F)C(c1cncnc1C(F)(F)F)C(C)(C)C (racemic) [Compound 1-249],5
13,CN(C(=O)Cc1ccccc1F)C(c1cncnc1C(F)(F)F)C1CCCC1 (racemic) [Compound 1-156],5
14,"CCOC(=O)c1ncncc1C(C(C)C)N(C)C(=O)C(C)c1ccc(Cl)cc1 (single isomer, unassigned) [1-595]",5
15,CN(C(=O)Cc1ccc(F)cc1)C(c1ccc(F)cc1F)c1cncnc1C(F)(F)F (racemic) [1-555],5
16,CC(C)C(c1cncnc1C(F)(F)F)N(C)C(=O)Cc1ccncc1 (racemic) [2-5],5
17,CCOC(=O)CN(C(=O)Cc1ccccc1)C(c1cncnc1C(F)(F)F)C(C)C (racemic) [1-476],5
18,CN(C(=O)Cc1ccsc1)C(c1cncnc1C(F)(F)F)C(C)(C)C (racemic) [2-14],5
19,CSCC(c1cncnc1C(F)(F)F)N(C)C(=O)Cc1cccc(F)c1 (racemic) [1-420],5
20,CC(C)C(c1cncnc1C(F)(F)F)N(C)C(=O)Cc1cccs1 (racemic) [2-6],5
21,CN(C(=O)Cc1ccc(F)cc1F)C(c1ccccc1)c1cncnc1C(F)(F)F (racemic) [Compound 1-274],5
22,CC(C)C(c1cncnc1C(F)(F)F)N(C)C(=O)C(=O)c1ccccc1 (racemic) [1-328],5
23,C=CCN(C(=O)Cc1ccccc1)C(c1cncnc1C(F)(F)F)C(C)C (racemic) [1-518],5
24,COCc1ncncc1C(C(C)C)N(C)C(=O)Cc1ccc(Cl)s1 (racemic) [2-77],5
25,CC(C)C(c1cncnc1C(F)(F)F)N(C)C(=O)Cn1cc(Br)cn1 (racemic) [2-41],5
26,CC(C)C(c1cncnc1C(F)(F)Cl)N(C)C(=O)Oc1ccc(Cl)cc1 (racemic) [1-185],5
